# Experimental data: ChEMBL document CHEMBL1201862, “PubChem BioAssay data set” (2004)
# Active and inactive are the calls of the source.
# Tests used:
# [1] = target: T1, Orexin receptor type 2 (Homo sapiens, UniProt O43614); experiment: Counterscreen assay for antagonists of the orexin 1 receptor (OX1R; HCRTR1): Fluorescence-based cell-based dose response assay for antagonists of the orexin 2 receptor (OX2R; HCRTR2), run by assay provider.; format: functional
# T1 sequence (O43614 whole entry): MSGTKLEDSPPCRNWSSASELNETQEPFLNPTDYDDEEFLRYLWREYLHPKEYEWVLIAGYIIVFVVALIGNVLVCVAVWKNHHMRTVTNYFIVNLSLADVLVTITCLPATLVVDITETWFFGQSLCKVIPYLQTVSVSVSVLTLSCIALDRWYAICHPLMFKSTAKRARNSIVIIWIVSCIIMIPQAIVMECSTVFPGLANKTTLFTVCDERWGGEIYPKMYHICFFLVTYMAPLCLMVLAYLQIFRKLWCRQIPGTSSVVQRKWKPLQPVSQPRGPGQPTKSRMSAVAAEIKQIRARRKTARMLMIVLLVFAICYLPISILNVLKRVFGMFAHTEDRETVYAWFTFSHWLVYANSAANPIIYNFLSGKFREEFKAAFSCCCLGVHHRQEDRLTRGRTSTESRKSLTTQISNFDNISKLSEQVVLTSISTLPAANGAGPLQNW
# [2] = target: T1, Orexin receptor type 2; experiment: Counterscreen assay for antagonists of the orexin 1 receptor (OX1R; HCRTR1): Homogeneous Time Resolved Fluorescence (HTRF)-based cell-based dose response assay for antagonists of the orexin 2 receptor (OX2R; HCRTR2), run by assay provider.; format: functional
# [3] = test system: CHO-K1; experiment: (§1) Counterscreen for antagonists of the orexin 1 receptor (OX1R; HCRTR1): Homogeneous time resolved fluorescence (HTRF)-based cell-based dose response assay to identify antagonists of the parental CHO-K1 cell line. [Related pubchem assays (depositor defined):AID434989, AID435008, AID463079, AID485270, AID492963, AID492964, AID492965, AID493232, AID504699, AID504701]; format: functional; conditions: Cricetulus griseus
# [4] = target: T2, Orexin/Hypocretin receptor type 1 (Homo sapiens, UniProt O43613); experiment: (§2) Fluorescence-based cell-based high throughput dose response assay for antagonists of the orexin 1 receptor (OX1R; HCRTR1). [Related pubchem assays (depositor defined):AID434989, AID435008, AID463079, AID485270, AID492963, AID492964, AID492965, AID493232, AID504717, AID504718]; format: functional
# T2 sequence (O43613 whole entry): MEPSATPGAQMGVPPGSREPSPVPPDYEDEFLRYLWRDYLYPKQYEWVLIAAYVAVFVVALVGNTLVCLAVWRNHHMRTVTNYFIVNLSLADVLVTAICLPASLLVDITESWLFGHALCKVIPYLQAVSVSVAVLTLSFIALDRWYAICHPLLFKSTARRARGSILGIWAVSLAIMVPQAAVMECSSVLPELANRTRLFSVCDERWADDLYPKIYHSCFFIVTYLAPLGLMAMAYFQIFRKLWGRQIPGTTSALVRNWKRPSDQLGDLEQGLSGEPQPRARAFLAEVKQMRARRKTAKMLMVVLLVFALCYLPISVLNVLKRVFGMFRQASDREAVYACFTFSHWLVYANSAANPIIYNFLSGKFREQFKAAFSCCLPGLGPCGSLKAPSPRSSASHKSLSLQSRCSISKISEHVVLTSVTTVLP
# [5] = target: T2, Orexin/Hypocretin receptor type 1; experiment: as §2, with “Homogeneous Time Resolved Fluorescence (HTRF)-based” for “Fluorescence-based”; format: functional
# [6] = as §1, with “Fluorescence-based” for “Homogeneous time resolved fluorescence (HTRF)-based”, “cell-based high throughput” for “cell-based”, “CHO” for “CHO-K1”; format: functional
# [7] = target: T3, DNA dC->dU-editing enzyme APOBEC-3A (Homo sapiens, UniProt P31941); experiment: SAR analysis of small molecule inhibitors of APOBEC3A DNA Deaminase via a fluorescence-based single-stranded DNA deaminase assay - Set 2.; format: functional; conditions: read-out: IC50_Mean
# [8] = target: T4, DNA dC->dU-editing enzyme APOBEC-3G (Homo sapiens, UniProt Q9HC16); experiment: SAR analysis of small molecule inhibitors of APOBEC3G DNA Deaminase via a fluorescence-based single-stranded DNA deaminase assay - Set 2.; format: functional; conditions: read-out: IC50_Mean
# [9] = target: T3, DNA dC->dU-editing enzyme APOBEC-3A; experiment: SAR analysis of small molecule inhibitors of APOBEC3A DNA Deaminase via a fluorescence-based single-stranded DNA deaminase assay.; format: functional; conditions: read-out: IC50_Mean
# [10] = target: T4, DNA dC->dU-editing enzyme APOBEC-3G; experiment: APOBEC3G deaminase inhibitors, SAR follow-up, biochemical, fluorescence, single-stranded DNA substrate (AID 602136); format: functional; conditions: read-out: IC50_Mean
# [11] = target: T5, Alkaline phosphatase, tissue-nonspecific isozyme (Homo sapiens, UniProt P05186)
# T5 sequence (P05186 whole entry): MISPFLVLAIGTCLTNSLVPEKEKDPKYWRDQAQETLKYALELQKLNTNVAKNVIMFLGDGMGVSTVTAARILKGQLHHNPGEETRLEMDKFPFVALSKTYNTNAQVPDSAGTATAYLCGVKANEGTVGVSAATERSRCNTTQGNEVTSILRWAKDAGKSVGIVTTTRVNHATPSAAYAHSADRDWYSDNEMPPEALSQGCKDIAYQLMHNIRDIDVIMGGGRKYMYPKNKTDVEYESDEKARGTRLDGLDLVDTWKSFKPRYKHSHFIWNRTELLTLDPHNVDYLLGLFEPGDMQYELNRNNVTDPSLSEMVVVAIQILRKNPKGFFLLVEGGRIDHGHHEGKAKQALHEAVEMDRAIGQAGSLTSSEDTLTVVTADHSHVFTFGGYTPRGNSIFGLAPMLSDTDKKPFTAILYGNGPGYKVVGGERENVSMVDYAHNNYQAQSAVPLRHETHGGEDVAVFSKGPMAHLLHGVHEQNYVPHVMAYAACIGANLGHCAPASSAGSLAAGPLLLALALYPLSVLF
# [12] = target: Voltage-gated N-type calcium channel alpha-1B subunit/Amyloid beta A4 precursor protein-binding family A member 1 (Homo sapiens, UniProt Q00975+Q02410); format: protein assay
# [13] = test system: HEK293; experiment: HEK cell cytotoxicity by LDH release, dose response, cytotoxicity control for IDE activator project, fluorescence, HEK cells (AID 588440); format: functional, cell-based; conditions: Homo sapiens;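 further: cytotoxicity by LDH release measuring loss of membrane integrity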
# [14] = target: T6, Insulin-degrading enzyme (Homo sapiens, UniProt P14735); experiment: activators of recombinant IDE enzyme, dose response, counter-screen for IDE activator project, biochemical, fluorescence polarization (AID 588681)
# T6 sequence (P14735 whole entry): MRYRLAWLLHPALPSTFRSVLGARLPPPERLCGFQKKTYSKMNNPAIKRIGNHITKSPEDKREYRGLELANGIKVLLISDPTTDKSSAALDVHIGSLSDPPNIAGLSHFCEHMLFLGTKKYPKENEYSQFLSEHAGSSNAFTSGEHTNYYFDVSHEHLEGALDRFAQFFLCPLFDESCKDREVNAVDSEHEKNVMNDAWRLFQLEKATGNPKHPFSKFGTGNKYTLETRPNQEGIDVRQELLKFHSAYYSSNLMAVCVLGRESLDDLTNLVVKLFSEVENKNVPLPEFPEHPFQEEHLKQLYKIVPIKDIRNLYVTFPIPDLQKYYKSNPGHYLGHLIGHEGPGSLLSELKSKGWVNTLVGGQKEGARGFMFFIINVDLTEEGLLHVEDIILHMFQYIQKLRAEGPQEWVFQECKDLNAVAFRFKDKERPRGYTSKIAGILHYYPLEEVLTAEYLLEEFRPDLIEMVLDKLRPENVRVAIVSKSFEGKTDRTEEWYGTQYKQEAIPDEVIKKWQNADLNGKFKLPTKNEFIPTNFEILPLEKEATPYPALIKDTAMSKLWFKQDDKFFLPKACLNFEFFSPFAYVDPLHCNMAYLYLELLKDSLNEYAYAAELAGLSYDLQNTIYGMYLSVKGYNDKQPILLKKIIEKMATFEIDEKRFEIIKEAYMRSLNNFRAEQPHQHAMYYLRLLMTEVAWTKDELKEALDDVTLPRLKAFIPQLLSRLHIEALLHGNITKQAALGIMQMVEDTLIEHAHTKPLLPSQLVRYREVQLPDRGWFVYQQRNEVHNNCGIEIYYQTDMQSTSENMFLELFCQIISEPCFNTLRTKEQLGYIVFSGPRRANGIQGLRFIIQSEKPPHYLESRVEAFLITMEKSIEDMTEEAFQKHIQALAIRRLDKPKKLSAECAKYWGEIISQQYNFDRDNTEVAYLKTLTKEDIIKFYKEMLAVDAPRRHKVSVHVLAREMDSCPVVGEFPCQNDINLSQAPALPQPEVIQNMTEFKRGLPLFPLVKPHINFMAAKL
# [15] = HEp-2 cell cytotoxicity, dose response, cytotoxicity control for RSV inhibitor project, HTS (AID 2410); format: functional; conditions: human respiratory syncytial virus
# [16] = test system: HEK293; experiment: optical interference in Abeta FP readout, dose response, artefact control for IDE activator project, biochemical, fluorescence polarization (AID 588442); format: functional, cell-based; conditions: Homo sapiens
# [17] = target: T6, Insulin-degrading enzyme; experiment: activators of endogenous IDE in HEK cells, dose response, cell-based, fluorescence polarization (AID 588439); format: functional
# [18] = target: Mitochondrial peptide methionine sulfoxide reductase (Bos taurus, UniProt P54149); format: functional;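 further: absorbance read-out, biochemical high-throughput dose-response screen for MsrA inhibitors, confirmatory; recombinant bovine MsrA coupled to E. coli TrxB with NADPH and selenocystamine; potency is for inhibitors of MsrA activity on DMSO substrate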
# [19] = target: T7, Apoptotic protease-activating factor 1 (Homo sapiens, UniProt O14727); experiment: SAR analysis of small molecule Activators of Apaf-1 in a Fluorescent assay.; format: functional; conditions: read-out: EC50_Mean;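 further: caspase-3 cleavage of fluorogenic Rh110 DEVD substrate downstream of apoptosome activation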
# T7 sequence (O14727 whole entry): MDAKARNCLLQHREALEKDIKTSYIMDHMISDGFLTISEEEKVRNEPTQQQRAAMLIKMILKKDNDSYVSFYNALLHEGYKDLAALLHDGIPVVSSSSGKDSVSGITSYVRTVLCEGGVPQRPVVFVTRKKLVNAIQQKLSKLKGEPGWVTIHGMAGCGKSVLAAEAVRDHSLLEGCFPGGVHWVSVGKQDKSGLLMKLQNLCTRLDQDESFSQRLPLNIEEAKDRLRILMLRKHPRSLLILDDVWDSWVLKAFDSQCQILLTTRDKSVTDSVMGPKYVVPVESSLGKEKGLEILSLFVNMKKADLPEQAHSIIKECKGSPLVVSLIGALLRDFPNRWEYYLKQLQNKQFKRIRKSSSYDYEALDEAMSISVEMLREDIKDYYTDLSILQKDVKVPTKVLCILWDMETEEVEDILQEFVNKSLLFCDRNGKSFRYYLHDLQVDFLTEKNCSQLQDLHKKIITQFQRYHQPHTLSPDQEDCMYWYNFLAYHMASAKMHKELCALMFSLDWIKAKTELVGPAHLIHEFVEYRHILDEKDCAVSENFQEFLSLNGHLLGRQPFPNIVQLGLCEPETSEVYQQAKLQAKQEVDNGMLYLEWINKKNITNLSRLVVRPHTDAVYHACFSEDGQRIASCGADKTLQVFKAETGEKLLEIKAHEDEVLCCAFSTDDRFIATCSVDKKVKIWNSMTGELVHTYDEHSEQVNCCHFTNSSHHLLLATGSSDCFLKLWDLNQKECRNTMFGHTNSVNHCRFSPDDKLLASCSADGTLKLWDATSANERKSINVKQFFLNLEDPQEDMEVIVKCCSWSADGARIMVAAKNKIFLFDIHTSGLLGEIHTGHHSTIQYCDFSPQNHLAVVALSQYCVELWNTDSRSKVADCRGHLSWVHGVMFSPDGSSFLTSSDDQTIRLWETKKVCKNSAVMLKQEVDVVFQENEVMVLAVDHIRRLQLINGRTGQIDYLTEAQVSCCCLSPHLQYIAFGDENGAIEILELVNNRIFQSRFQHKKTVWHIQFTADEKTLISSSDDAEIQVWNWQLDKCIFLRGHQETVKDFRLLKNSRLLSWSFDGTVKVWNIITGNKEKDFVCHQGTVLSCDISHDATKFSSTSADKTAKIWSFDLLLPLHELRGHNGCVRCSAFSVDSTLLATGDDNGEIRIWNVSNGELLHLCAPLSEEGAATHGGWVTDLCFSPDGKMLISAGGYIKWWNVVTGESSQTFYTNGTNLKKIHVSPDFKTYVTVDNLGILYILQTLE
# [20] = target: Ras and Rab interactor 1/Tyrosine-protein kinase ABL1 (Homo sapiens, UniProt P00519+Q13671); format: functional;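 further: biochemical TR-FRET dose-response test measuring inhibition of binding between Rin1 and Abl proteins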
# [21] = AlphaScreen signal interference compounds, dose response, artefact control for ARNT-TACC3 interaction inhibitor project, biochemical, luminescence, cherry-pick (AID 651705); format: functional;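 further: AlphaScreen bead proximity signal that flags compounds interfering with the detection technology; potency reflects signal decrease which marks the compound as an assay artifact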
# T4 sequence (Q9HC16 whole entry): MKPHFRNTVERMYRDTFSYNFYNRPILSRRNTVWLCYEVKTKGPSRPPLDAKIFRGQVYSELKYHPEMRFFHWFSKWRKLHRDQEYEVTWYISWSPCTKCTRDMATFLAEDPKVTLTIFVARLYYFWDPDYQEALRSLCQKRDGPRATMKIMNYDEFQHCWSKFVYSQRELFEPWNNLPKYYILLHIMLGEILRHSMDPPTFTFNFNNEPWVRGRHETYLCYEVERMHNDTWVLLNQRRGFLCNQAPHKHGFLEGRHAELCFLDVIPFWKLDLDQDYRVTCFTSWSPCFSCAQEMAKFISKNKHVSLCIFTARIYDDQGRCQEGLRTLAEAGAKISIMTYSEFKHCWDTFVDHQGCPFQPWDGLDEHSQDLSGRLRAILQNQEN
# T3 sequence (P31941 whole entry): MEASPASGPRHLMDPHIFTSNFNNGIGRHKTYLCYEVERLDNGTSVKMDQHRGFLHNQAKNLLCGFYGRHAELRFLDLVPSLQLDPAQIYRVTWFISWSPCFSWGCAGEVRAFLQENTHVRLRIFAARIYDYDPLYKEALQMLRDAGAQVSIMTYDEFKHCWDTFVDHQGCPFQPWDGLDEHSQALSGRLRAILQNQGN
# Chain of Ras and Rab interactor 1/Tyrosine-protein kinase ABL1 (P00519 whole entry): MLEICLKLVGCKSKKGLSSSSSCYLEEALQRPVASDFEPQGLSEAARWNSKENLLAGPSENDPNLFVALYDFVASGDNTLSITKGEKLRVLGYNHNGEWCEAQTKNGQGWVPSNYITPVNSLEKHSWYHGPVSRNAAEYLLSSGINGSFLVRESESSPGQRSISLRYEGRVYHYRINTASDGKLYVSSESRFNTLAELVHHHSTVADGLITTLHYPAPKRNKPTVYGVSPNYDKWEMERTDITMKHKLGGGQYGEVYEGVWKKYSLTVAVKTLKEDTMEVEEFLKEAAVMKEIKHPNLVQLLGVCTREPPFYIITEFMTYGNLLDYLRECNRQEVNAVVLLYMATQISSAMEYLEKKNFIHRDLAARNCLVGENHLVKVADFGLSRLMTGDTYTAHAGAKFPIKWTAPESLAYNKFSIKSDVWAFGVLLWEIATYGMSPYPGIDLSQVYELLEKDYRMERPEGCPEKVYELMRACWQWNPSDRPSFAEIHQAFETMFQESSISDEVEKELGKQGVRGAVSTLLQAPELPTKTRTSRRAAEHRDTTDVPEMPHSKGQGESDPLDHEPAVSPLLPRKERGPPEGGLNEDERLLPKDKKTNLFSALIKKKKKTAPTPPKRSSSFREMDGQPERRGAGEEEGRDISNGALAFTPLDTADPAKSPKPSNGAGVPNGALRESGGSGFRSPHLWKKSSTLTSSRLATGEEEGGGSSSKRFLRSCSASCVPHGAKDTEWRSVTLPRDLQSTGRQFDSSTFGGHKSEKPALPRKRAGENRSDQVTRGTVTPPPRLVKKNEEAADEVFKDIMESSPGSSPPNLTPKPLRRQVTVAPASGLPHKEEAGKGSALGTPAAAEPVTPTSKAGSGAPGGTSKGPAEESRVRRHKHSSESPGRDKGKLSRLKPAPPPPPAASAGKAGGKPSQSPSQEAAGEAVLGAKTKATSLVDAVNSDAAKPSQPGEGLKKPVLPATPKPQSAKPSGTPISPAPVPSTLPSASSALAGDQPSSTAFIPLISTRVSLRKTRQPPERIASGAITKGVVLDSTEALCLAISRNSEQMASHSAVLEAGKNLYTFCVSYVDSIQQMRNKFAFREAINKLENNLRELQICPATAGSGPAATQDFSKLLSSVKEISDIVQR
# Chain of Ras and Rab interactor 1/Tyrosine-protein kinase ABL1 (Q13671 whole entry): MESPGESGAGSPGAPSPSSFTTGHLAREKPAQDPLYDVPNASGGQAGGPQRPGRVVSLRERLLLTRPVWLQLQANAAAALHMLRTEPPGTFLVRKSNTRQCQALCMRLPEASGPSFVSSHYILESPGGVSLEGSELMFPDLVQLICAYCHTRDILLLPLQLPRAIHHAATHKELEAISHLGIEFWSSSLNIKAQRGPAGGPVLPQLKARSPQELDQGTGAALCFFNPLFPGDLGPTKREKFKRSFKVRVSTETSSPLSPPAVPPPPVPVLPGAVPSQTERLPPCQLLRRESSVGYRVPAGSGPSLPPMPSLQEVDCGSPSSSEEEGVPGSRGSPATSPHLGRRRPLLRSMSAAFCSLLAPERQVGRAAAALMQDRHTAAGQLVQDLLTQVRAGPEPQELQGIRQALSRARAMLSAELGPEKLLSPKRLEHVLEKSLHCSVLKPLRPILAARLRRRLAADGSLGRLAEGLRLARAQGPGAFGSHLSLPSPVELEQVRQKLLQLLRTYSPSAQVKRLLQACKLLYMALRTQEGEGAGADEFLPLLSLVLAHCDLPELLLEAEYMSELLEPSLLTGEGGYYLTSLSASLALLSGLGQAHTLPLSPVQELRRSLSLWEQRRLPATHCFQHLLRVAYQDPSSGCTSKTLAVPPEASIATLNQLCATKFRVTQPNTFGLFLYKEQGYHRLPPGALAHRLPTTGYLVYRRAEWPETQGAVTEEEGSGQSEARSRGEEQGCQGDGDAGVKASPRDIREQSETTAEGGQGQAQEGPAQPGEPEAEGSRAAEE
# Chain of Mitochondrial peptide methionine sulfoxide reductase (P54149 whole entry): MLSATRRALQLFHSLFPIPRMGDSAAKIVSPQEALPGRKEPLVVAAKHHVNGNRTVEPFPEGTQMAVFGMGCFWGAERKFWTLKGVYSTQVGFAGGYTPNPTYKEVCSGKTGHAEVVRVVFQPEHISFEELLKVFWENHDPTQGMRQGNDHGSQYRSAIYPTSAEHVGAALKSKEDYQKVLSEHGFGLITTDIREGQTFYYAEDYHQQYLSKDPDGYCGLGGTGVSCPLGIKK
smiles,measurement,setting,value
Cc1ccc(NC2CCCN(C(=O)c3cn(C)c4ccccc34)C2)cc1C (configuration not stated),IC50,[1],7.1 µM (active)
same,IC50,[2],1.64 µM (active)
same,IC50,[3],> 66.2 µM (inactive)
same,IC50,[4],8.18 µM (active)
same,IC50,[5],771 nM (active)
same,IC50,[6],> 49.7 µM (inactive)
Cc1ccc(C=Nn2c(-c3ccco3)n[nH]c2=S)s1,IC50,[7],85.5 µM (inactive)
same,IC50,[8],3.67 µM (active)
same,IC50,[9],> 99 µM (inactive)
same,IC50,[10],2.09 µM (active)
CCN(CC)c1ccc(NC(=O)Cn2c(C(C)NC(=O)c3ccccc3)nc3ccccc32)cc1 (configuration not stated),IC50,[1],> 88.8 µM (inactive)
same,IC50,[2],> 50 µM (inactive)
same,EC50,[11],> 100 µM (not active)
same,IC50,[3],> 66.2 µM (inactive)
same,IC50,[4],0.382 µM (active)
same,IC50,[12],> 50 µM (inactive)
same,IC50,[5],106 nM (active)
same,IC50,[6],> 49.7 µM (inactive)
Oc1ccc(C2Nc3cccc4cccc(c34)N2)cc1,IC50,[13],> 89.2 µM (inactive)
same,EC50,[14],6.73 µM (active)
same,CC50,[15],21.8 µM (active)
same,EC50,[16],20.4 µM (inactive)
same,EC50,[17],11.1 µM (inactive)
O=C(NCc1cccnc1)c1ccc(=O)oc1,IC50,[18],140 µM (inactive)
COC(=O)c1coc(-c2cc3ccccc3s2)n1,EC50,[19],> 100 µM (inactive)
OC[C@@H]1CN(Cc2ccc(-c3ccccc3)cc2)C[C@H](n2cnc3c(NC4CC4)ncnc32)O1,IC50,[20],16.9 µM (inactive)
C[C@@H]1CN([C@@H](C)CO)C(=O)c2cc(NC(=O)CCCN(C)C)ccc2O[C@@H](C)CCCCO[C@H]1CN(C)C(=O)Nc1cccc2ccccc12,AC50,[21],74.8 µM (active)
